Experiment [1] concerns the target T1, α1β2γ2 GABAA receptors (UniProt P18508+P47870+P62813).
T1 construct: expressed in transfected cells; host or cells: Xenopus laevis oocytes (cRNA injection)
Description: Xenopus oocyte two-electrode voltage clamp. The format is cell-based, rat and human.

In experiment [2] the target is T2, α1β1γ2 GABAA receptors (Rattus norvegicus, UniProt P15431+P18508+P62813).
T2 construct: expressed in transfected cells; host or cells: Xenopus laevis oocytes (cRNA injection)
In words: Xenopus oocyte two-electrode voltage clamp. The format is cell-based. Conditions: a1b1g2.

Experiment [3] concerns the target T3, α1β3 GABAA receptors (Rattus norvegicus, UniProt P62813+P63079).
T3 construct: expressed in transfected cells; host or cells: Xenopus laevis oocytes (cRNA injection)
Description: Xenopus oocyte two-electrode voltage clamp. The format is cell-based. The following applies: a1b3.

Experiment [4] has as its target T4, α1β2 GABAA receptors (UniProt P47870+P62813).
T4 construct: expressed in transfected cells; host or cells: Xenopus laevis oocytes (cRNA injection)
Description: Xenopus oocyte two-electrode voltage clamp. Format: cell-based, rat and human. The following applies: a1b2.

In experiment [5] the target is T5, α4β3δ GABAA receptors (UniProt P18506+P48169+P63079).
T5 construct: expressed in transfected cells; host or cells: Xenopus laevis oocytes (cRNA injection)
In words: Xenopus oocyte two-electrode voltage clamp. Format: cell-based, rat. The following applies: a4b3d; [Zn++] 1 µM.

The target of experiment [6] is T6, α1β2γ1 GABAA receptors (UniProt P47870+P62813+Q8N1C3).
T6 construct: expressed in transfected cells; host or cells: Xenopus laevis oocytes (cRNA injection); γ1 cDNA synthesized by GenScript in pGEMHE
Description: Xenopus oocyte two-electrode voltage clamp. Format: cell-based, rat and human. Conditions: a1b2g1.

In experiment [7] the target is T7, α1β3γ2 GABAA receptors (Rattus norvegicus, UniProt P18508+P62813+P63079).
T7 construct: expressed in transfected cells; host or cells: Xenopus laevis oocytes (cRNA injection)
In words: Xenopus oocyte two-electrode voltage clamp. The format is cell-based. The following applies: a1b3g2.

Experiment [8] addresses T8, α5β3 GABAA receptors (UniProt P31644+P63079).
T8 construct: expressed in transfected cells; host or cells: Xenopus laevis oocytes (cRNA injection)
In words: Xenopus oocyte two-electrode voltage clamp. The format is cell-based, rat. Conditions: a5b3.

In experiment [9] the target is T9, α5β3γ2 GABAA receptors (UniProt P18508+P31644+P63079).
T9 construct: expressed in transfected cells; host or cells: Xenopus laevis oocytes (cRNA injection)
Description: Xenopus oocyte two-electrode voltage clamp. Format: cell-based, rat. Conditions: a5b3g2.

Experiment [10] has as its target T10, α1β3δ GABAA receptors (Rattus norvegicus, UniProt P18506+P62813+P63079).
T10 construct: expressed in transfected cells; host or cells: Xenopus laevis oocytes (cRNA injection)
Description: Xenopus oocyte two-electrode voltage clamp. Format: cell-based. Conditions: a1b3d.

In experiment [11] the target is T11, α4β3γ2 GABAA receptors (UniProt P18508+P48169+P63079).
T11 construct: expressed in transfected cells; host or cells: Xenopus laevis oocytes (cRNA injection)
In words: Xenopus oocyte two-electrode voltage clamp. The following applies: a4b3g2; [Zn++] 1 µM. The format is cell-based, rat.

Experiment [12] addresses T12, α1β2(N265S)γ2 GABAA receptors (UniProt P18508+P47870+P62813, N289S).
T12 construct: expressed in transfected cells; host or cells: Xenopus laevis oocytes (cRNA injection)
In words: Xenopus oocyte two-electrode voltage clamp. The format is cell-based, rat and human. The following applies: a1b2(N265S)g2.

The subject of experiment [13] is medial CeA neurons. In words: Brain slice whole cell patch clamp recording. Format: cell-based, rat. The following applies: 100 μM, focally applied following DCUK-OEt (0.5 µM).
Description: Slices were prepared from brains of 5 adult male Wistar rats (250–350 g) as described by Herman et al.[56]. A single slice was transferred to a recording chamber mounted on the stage of an upright microscope (Olympus BX50WI).
Neurons were visualized and whole cell patch clamp recordings were made as previously described[56]. Series resistance was typically <15 MΩ and was continuously monitored with a hyperpolarizing 10 mV pulse. Electrophysiological properties of cells were determined by pClamp 10 Clampex software online during voltage-clamp recording using a 5 mV pulse delivered after breaking into the cell. The resting membrane potential was determined online after breaking into the cell using the zero current (I = 0) recording configuration and the liquid junction potential was included in the determination. […]
Frequency, amplitude and decay of spontaneous inhibitory postsynaptic currents (sIPSCs) were analyzed and visually confirmed using a semi-automated threshold based mini detection software (Mini Analysis, Synaptosoft Inc.). Averages of sIPSC characteristics were determined from baseline and experimental drug conditions containing a minimum of 60 events (time period of analysis varied as a product of individual event frequency) and decay kinetics were determined using exponential curve fittings and reported as decay time (ms). […]
For experiment [14], the target named is T5, α4β3δ GABAA receptors. Further details: method as in Borghese et al., 2006. The following applies: a4b3d; ref Borghese et al., 2006; cited from earlier work.
In experiment [15] the target is T11, α4β3γ2 GABAA receptors. Details: method as in Borghese et al., 2006. Conditions: a4b3g2; ref Borghese et al., 2006; cited from earlier work.
The target of experiment [16] is T12, α1β2(N265S)γ2 GABAA receptors. Details: method as in PMID 19741491. Conditions: concentrations up to 1 mM; cited from earlier work.
For experiment [17], the target named is GABAA receptors, benzodiazepine site (washed rat brain membranes). Description: [3H]Flunitrazepam binding and displacement. Conditions: read-out: [3H]Flunitrazepam Binding, displacement, 1 nM [3H]flunitrazepam, 10 µM GABA. As for the experimental part:
Membrane Preparation. These experiments were performed at the University of Colorado Health Sciences Center, Denver, CO. Experiments were approved by the Institutional Animal Care and Use Committee (IACUC) of the University of Colorado, Denver, and were performed in accordance with the NIH Guide for the Care and Use of Laboratory Animals. Male Sprague-Dawley rats (200–250 g) were maintained in an AAALAC-accredited facility and sacrificed by CO2 exposure and decapitation. Brains were removed, and membranes were prepared from the forebrain as described previously. Ligand binding assay. […] Bound and free ligand were separated by rapid filtration under vacuum over Whatman GF/B filters presoaked in buffer in a 24 port Brandel Cell Harvester. Filters were washed with 2 × 5 ml of ice-cold HEPES buffer and dried prior to measurement of bound radioactivity by scintillation counting (Beckman LS3800 scintillation counter) using Ultima Gold XR scintillation cocktail. Analysis of ligand binding data.

Experiment [18] concerns the target GABAA receptors (washed rat brain membranes). Description: Displacement of [3H]muscimol binding (PDSP). Conditions: 5 nM [3H]muscimol. As for the experimental part: Rat brain membranes were prepared as described in the Protocol Manual on the PDSP website (https://pdspdb.unc.edu/pdspWeb/). […] The final concentration of [^3H]muscimol in the assay mixture was 5 nM. […] Analysis of ligand binding data.

SMILES strings stand for the structures. Like-named read-outs stand apart in the source and are kept apart here.

T12 sequence (P62813 28-455): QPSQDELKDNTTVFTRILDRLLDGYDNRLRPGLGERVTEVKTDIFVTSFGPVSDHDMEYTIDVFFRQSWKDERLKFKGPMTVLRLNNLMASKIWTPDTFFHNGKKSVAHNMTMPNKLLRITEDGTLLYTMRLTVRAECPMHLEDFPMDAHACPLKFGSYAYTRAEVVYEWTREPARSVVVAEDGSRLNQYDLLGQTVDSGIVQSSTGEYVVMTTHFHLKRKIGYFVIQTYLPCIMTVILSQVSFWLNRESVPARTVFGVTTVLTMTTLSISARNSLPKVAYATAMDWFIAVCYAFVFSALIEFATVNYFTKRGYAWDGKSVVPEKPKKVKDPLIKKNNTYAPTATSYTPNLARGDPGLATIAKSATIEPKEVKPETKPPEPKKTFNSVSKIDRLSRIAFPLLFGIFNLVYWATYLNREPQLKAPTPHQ
T12 sequence (P47870 25-474 isoform P47870-1 N289S limits assumed): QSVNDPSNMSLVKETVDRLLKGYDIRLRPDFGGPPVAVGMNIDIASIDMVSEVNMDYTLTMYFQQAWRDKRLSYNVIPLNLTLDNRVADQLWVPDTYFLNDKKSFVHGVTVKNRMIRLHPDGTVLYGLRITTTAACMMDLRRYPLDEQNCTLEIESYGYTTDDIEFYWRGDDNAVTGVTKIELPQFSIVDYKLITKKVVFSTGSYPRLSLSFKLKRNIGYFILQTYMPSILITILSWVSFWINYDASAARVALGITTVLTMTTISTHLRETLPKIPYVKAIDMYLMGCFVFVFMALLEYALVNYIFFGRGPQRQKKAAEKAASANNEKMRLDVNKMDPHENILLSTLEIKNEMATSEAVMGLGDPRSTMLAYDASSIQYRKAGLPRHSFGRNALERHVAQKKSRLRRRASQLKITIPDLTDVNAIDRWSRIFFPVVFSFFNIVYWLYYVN
T12 sequence (P18508 39-466): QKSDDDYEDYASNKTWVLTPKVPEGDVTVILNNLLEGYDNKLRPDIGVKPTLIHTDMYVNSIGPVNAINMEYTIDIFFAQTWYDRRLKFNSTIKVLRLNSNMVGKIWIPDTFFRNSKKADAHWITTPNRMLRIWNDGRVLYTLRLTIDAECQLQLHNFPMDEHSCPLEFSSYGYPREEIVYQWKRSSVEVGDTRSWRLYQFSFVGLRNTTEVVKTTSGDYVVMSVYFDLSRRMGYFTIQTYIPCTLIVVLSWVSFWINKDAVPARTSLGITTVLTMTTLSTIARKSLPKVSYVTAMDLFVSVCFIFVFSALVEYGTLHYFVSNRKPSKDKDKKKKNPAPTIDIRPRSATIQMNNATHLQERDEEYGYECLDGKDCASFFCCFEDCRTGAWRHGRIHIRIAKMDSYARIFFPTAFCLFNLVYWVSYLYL
T1 sequence (P62813 28-455): as the sequence (P62813 28-455) above
T1 sequence (P47870 26-474 isoform P47870-1 limits assumed): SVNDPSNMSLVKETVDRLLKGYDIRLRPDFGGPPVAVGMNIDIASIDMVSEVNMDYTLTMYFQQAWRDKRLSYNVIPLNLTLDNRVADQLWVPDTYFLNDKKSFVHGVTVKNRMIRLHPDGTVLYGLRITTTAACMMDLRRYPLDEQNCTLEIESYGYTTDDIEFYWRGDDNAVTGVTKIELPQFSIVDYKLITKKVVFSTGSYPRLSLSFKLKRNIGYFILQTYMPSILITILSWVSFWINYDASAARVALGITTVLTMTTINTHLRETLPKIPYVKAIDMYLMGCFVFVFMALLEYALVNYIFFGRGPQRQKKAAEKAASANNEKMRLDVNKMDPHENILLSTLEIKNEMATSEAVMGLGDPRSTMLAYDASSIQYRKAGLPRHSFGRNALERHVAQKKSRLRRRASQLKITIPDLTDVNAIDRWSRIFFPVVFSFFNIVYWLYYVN
T1 sequence (P18508 39-466): as the sequence (P18508 39-466) above
T8 sequence (P31644 32-462): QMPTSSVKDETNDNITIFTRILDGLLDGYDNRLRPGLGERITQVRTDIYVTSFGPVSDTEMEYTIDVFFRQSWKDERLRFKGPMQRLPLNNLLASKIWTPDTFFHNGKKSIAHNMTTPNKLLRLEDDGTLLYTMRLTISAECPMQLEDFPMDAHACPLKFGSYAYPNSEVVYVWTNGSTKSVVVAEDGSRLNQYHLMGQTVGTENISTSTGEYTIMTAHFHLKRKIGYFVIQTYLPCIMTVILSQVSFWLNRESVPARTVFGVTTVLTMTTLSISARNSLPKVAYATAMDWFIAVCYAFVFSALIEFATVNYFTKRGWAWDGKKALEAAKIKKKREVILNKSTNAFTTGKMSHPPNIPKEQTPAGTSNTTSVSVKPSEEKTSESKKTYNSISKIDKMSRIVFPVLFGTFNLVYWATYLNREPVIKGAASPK
T8 sequence (P63079 26-473): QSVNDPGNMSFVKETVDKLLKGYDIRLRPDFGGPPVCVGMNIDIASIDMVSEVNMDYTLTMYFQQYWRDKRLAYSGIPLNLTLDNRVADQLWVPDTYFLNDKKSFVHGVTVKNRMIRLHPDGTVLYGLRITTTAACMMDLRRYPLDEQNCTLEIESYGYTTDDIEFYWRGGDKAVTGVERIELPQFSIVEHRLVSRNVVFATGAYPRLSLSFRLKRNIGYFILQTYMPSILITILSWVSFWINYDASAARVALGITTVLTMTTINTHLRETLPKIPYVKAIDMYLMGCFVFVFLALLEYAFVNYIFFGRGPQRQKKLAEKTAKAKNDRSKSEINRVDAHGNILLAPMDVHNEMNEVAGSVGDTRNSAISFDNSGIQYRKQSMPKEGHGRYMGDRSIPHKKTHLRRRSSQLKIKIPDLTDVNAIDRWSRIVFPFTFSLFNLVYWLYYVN
T9 sequence (P31644 32-462): as the sequence (P31644 32-462) above
T9 sequence (P63079 26-473): as the sequence (P63079 26-473) above
T9 sequence (P18508 39-466): as the sequence (P18508 39-466) above
T7 sequence (P62813 28-455): as the sequence (P62813 28-455) above
T7 sequence (P63079 26-473): as the sequence (P63079 26-473) above
T7 sequence (P18508 39-466): as the sequence (P18508 39-466) above
T2 sequence (P62813 28-455): as the sequence (P62813 28-455) above
T2 sequence (P15431 26-474): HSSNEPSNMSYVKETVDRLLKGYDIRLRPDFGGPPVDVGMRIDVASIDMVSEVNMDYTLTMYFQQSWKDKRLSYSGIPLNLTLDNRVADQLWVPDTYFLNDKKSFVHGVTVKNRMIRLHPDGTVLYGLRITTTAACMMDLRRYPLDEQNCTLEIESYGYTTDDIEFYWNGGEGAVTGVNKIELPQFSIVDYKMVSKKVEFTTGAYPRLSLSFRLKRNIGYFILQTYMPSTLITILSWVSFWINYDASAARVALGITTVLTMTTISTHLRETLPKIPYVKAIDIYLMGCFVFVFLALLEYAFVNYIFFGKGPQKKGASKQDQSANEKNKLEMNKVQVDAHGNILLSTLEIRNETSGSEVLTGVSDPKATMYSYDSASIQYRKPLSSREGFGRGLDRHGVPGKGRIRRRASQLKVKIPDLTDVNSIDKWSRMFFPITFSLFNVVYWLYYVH
T2 sequence (P18508 39-466): as the sequence (P18508 39-466) above
T3 sequence (P62813 28-455): as the sequence (P62813 28-455) above
T3 sequence (P63079 26-473): as the sequence (P63079 26-473) above
T10 sequence (P62813 28-455): as the sequence (P62813 28-455) above
T10 sequence (P63079 26-473): as the sequence (P63079 26-473) above
T10 sequence (P18506 17-449 limits assumed): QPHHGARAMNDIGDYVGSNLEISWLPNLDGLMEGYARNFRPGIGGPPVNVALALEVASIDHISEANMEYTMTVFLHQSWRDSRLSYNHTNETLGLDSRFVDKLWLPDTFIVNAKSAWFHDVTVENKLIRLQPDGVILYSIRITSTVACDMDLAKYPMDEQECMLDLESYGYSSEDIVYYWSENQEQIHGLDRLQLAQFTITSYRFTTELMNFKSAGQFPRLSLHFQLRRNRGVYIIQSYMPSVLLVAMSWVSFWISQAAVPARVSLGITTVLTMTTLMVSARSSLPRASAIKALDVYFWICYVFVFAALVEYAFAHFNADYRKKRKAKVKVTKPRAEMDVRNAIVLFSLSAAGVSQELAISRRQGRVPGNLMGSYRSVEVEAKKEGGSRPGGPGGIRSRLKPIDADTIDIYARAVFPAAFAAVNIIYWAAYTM
T4 sequence (P62813 28-455): as the sequence (P62813 28-455) above
T4 sequence (P47870 26-474 isoform P47870-1 limits assumed): as the sequence (P47870 26-474 isoform P47870-1 limits assumed) above
T6 sequence (P62813 28-455): as the sequence (P62813 28-455) above
T6 sequence (P47870 26-474 isoform P47870-1 limits assumed): as the sequence (P47870 26-474 isoform P47870-1 limits assumed) above
T6 sequence (Q8N1C3 36-465): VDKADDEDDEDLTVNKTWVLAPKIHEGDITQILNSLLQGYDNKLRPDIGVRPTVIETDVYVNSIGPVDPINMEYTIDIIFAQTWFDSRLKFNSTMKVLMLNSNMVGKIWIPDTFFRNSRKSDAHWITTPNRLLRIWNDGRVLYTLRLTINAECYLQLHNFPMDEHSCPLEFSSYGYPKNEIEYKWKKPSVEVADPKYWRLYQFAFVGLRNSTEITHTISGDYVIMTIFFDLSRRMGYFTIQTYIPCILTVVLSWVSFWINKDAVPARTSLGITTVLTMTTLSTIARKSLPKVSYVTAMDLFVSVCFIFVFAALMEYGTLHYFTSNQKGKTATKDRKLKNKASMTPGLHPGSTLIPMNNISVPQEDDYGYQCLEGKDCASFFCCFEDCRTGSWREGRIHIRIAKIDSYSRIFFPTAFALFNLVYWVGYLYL

Consider `CCOC(=O)c1ncn2c1CN(C)C(=O)c1cc(F)ccc1-2` [flumazenil], for which the “Potentiation of EC10 GABA responses” value in [1] came out at 51 ± 2%.

With `[Zn+2]` [Zn++], the “% change of EC10 GABA responses by Zn++” value is 21 ± 3% in experiment [2] ([Zn++] 100 µM); -85 ± 3% in [3] ([Zn++] 1 µM); -9 ± 4% in experiment [1] (a1b2g2, [Zn++] 10 µM); -99 ± 1% in experiment [4] ([Zn++] 10 µM); -31 ± 6% in [5]; 0.4 ± 1.4% in experiment [6] ([Zn++] 10 µM). Besides, the “% change of EC10 GABA responses by Zn++” value in experiment [7] ([Zn++] 10 µM) is reported as -19 ± 4%; in [8] ([Zn++] 10 µM), -89 ± 2%; in experiment [9] ([Zn++] 10 µM) it was -29 ± 6%; in [10] ([Zn++] 1 µM) it was -35 ± 1%; in [11] it was -43 ± 4%; in [12] ([Zn++] 10 µM), 10 ± 2%.

With `COc1ccc(-c2ccc(=N)n(CCCC(=O)O)n2)cc1` [gabazine], the “Holding current when applied after DCUK-OEt” value in experiment [13] is reported as “significant reduction in holding current”.

Take `NCCCC(=O)O` [GABA, γ-aminobutyric acid]: the “nH (Hill coefficient of GABA concentration-response curve)” value in experiment [14] is recorded as 0.84 ± 0.07; in [2], 0.76 ± 0.07; in [3], 0.97 ± 0.06; in experiment [1] (a1b2g2) it was 0.99 ± 0.03; in experiment [4], 1.19 ± 0.08; in experiment [6], 0.87 ± 0.06. The “nH (Hill coefficient of GABA concentration-response curve)” value in [15] is 1.01 ± 0.09; in [7] it was 1.33 ± 0.08; in experiment [8], 0.93 ± 0.07; in [9], 0.93 ± 0.04; in experiment [10], 0.78 ± 0.07; in experiment [12], 0.81 ± 0.06.

Consider `CCOC(=O)c1cncn1[C@H](C)c1ccccc1` [Etomidate, etomidate], for which the “GABA potentiating effect at α1β2(N265S)γ2” value in experiment [16] is recorded as “no GABA potentiating effect”.

For `C[C@]12CC[C@@H](O)C[C@@H]1CC[C@@H]1[C@@H]2CC[C@]2(C)C(c3ccccc3)=CC[C@@H]12` [Compound 17PA, 17-phenyl-(3α,5α)-androst-16-en-3-ol], the inhibition at 10 µM in [1] (read-out: Inhibition by 17PA of DCUK-OEt potentiation of GABA actions) came to 35%; in experiment [1] (read-out: Inhibition by 17PA of the potentiating effects of allopregnanolone on GABA-induced currents), 56%.

Regarding `O=C(O)c1cc(NC(=O)N(c2ccccc2)c2ccccc2)c2c(Cl)cc(Cl)cc2n1` [DCUKA, 5,7 dichloro-4-([diphenylcarbamoyl]amino) quinoline-2-carboxylic acid], the results for the Ki in experiment [17] and in [18] were greater than 10 µM and 6.6 ± 1.9 µM, respectively. Moreover, the “Effect of co-applied flumazenil on DCUK actions on α1β2γ2 GABAA receptors” value in experiment [1] (20 μM flumazenil, EC10 GABA) is reported as “did not significantly affect”. The “Effect on submaximal GABA (EC10) currents” value in [1] (oocytes containing α1β2γ2 GABAA receptors) is on record as “enhanced”.

These data come from PMC5524711 (Scientific Reports, 2017).
